Data from patent US10563263B2, “Genetic polymorphisms associated with statin response and cardiovascular diseases, methods of detection and uses thereof” (CELERA CORPORATION, priority 2010, dated 2020).

Tested on: CVD (CHD or stroke)
Experiment: WOSCOPS: SNP by pravastatin treatment interaction, logistic regression (synergy index), CVD endpoint
Format: in vivo, human
Conditions: for OR (synergy index), WOSCOPS, Prava vs Placebo: CVD endpoint, Caseonly; for OR (SNP x pravastatin treatment interaction): WOSCOPS pravastatin vs placebo
Source text: CARE was a secondary prevention trial and WOSCOPS was a primary prevention trial.
The CHD endpoint was defined in the analyses herein of CARE as a composite endpoint of fatal CHD, definite non-fatal MI, or revascularization, and was defined in the analyses herein of WOSCOPS as a composite endpoint of death from CHD, nonfatal MI, or revascularization. In both the CARE and WOSCOPS analyses herein, the CVD endpoint was defined as a composite endpoint of CHD or stroke. […] Revascularization, which can include percutaneous transluminal coronary angioplasty (PTCA), stent placement, and coronary artery bypass graft (CABG), are medical interventions that indicate the presence of CHD.
Cohort and case-only study designs were used to identify SNPs associated with response to statin treatment.
For each SNP, a logistic regression model having treatment status as the dependent variable and SNP as the independent predictor variable was performed, with terms for age, sex and race included in the model as covariates. The anti-log of the regression coefficient corresponding to the SNP is an estimate of the synergy index (SI) (Davis et al., “Imputing gene-treatment interactions when the genotype distribution is unknown using case-only and putative placebo analyses-a new method for the Genetics of Hypertension Associated Treatment (GenHAT) study”, Statistics in Medicine 23: (2004), pages 2413-2427). The SI is a ratio of odds ratios: for example in the CARE and WOSCOPS studies, the SI represents the factor by which the odds-ratio of statin treatment, compared with placebo, among major homozygous individuals is multiplied by in order to obtain the odds-ratio of treatment vs. placebo among heterozygous individuals; and multiplied by a second time to obtain the odds-ratio of treatment vs. placebo in minor homozygous individuals. […] In a randomized clinical trial, genotype and treatment are independent by design.

Structure (SMILES): CC[C@H](C)C(=O)O[C@H]1C[C@H](O)C=C2C=C[C@H](C)[C@H](CC[C@@H](O)C[C@@H](O)CC(=O)O)[C@H]21 [Pravastatin, pravastatin]
- OR (synergy index), WOSCOPS, Prava vs Placebo (SNP rs304601 (A1 A, A2 G), rec model): 3.93
- OR (synergy index), WOSCOPS, Prava vs Placebo (SNP rs988146 (A1 G, A2 A), add model): 0.80
- OR (SNP x pravastatin treatment interaction) (SNP rs1241967, allele A1=T, model REC, Imputed): 0.5915
- OR (SNP x pravastatin treatment interaction) (SNP rs1247340, allele A1=C, model ADD, Imputed): 1.51
- OR (SNP x pravastatin treatment interaction) (SNP rs1247340, allele A1=C, model DOM, Imputed): 1.767
- OR (SNP x pravastatin treatment interaction) (SNP rs1247341, allele A1=C, model ADD, Imputed): 1.524
- OR (SNP x pravastatin treatment interaction) (SNP rs1247341, allele A1=C, model DOM, Imputed): 1.795
- OR (SNP x pravastatin treatment interaction) (SNP rs1247343, allele A1=C, model DOM, Imputed): 1.681
- OR (SNP x pravastatin treatment interaction) (SNP rs1335721, allele A1=A, model REC, Imputed): 0.5999
- OR (SNP x pravastatin treatment interaction) (SNP rs1336382, allele A1=T, model DOM, Imputed): 1.458
- OR (SNP x pravastatin treatment interaction) (SNP rs1336383, allele A1=T, model DOM, Imputed): 1.458
- OR (SNP x pravastatin treatment interaction) (SNP rs1336407, allele A1=T, model DOM, Imputed): 1.458
- OR (SNP x pravastatin treatment interaction) (SNP rs1336409, allele A1=T, model DOM, Imputed): 1.458
- OR (SNP x pravastatin treatment interaction) (SNP rs1336596, allele A1=A, model DOM, Imputed): 0.6728
- OR (SNP x pravastatin treatment interaction) (SNP rs1355715, allele A1=T, model ADD, Imputed): 0.5755
- OR (SNP x pravastatin treatment interaction) (SNP rs1363273, allele A1=C, model REC, Imputed): 0.5817
- OR (SNP x pravastatin treatment interaction) (SNP rs1373601, allele A1=A, model DOM, Imputed): 0.5287
- OR (SNP x pravastatin treatment interaction) (SNP rs1395748, allele A1=G, model DOM, Imputed): 0.6603
- OR (SNP x pravastatin treatment interaction) (SNP rs1414865, allele A1=T, model DOM, Imputed): 1.433
- OR (SNP x pravastatin treatment interaction) (SNP rs1414873, allele A1=A, model DOM, Imputed): 1.458
- OR (SNP x pravastatin treatment interaction) (SNP rs1414876, allele A1=C, model DOM, Imputed): 1.458
- OR (SNP x pravastatin treatment interaction) (SNP rs1424643, allele A1=G, model ADD, Imputed): 1.554
- OR (SNP x pravastatin treatment interaction) (SNP rs1424643, allele A1=G, model DOM, Imputed): 1.592
- OR (SNP x pravastatin treatment interaction) (SNP rs1424648, allele A1=T, model DOM, Imputed): 1.619
- OR (synergy index), WOSCOPS, Prava vs Placebo (SNP rs1559557 (A1 G, A2 A), add model): 1.53
- OR (synergy index), WOSCOPS, Prava vs Placebo (SNP rs1877527 (A1 G, A2 A), add model): 0.77
- OR (synergy index), WOSCOPS, Prava vs Placebo (SNP rs2132241 (A1 A, A2 G), add model): 0.70
- OR (synergy index), WOSCOPS, Prava vs Placebo (SNP rs2270588 (A1 G, A2 A), add model): 0.75
- OR (synergy index), WOSCOPS, Prava vs Placebo (SNP rs9325191 (A1 A, A2 C), add model): 0.69
- OR (synergy index), WOSCOPS, Prava vs Placebo (SNP rs9346951 (A1 A, A2 G), add model): 1.25
- OR (synergy index), WOSCOPS, Prava vs Placebo (SNP rs10787944 (A1 G, A2 A), dom model): 1.45
- OR (SNP x pravastatin treatment interaction) (SNP rs11959206, allele A1=A, model REC, Imputed): 0.5862
- OR (SNP x pravastatin treatment interaction) (SNP rs12038613, allele A1=C, model REC, Imputed): 0.5999
- OR (SNP x pravastatin treatment interaction) (SNP rs12151417, allele A1=T, model DOM, Imputed): 1.573
- OR (SNP x pravastatin treatment interaction) (SNP rs12153185, allele A1=T, model DOM, Imputed): 0.6973
- OR (SNP x pravastatin treatment interaction) (SNP rs12182651, allele A1=T, model DOM, Imputed): 2.24
- OR (SNP x pravastatin treatment interaction) (SNP rs12235345, allele A1=C, model DOM, Imputed): 1.42
- OR (SNP x pravastatin treatment interaction) (SNP rs12324786, allele A1=T, model REC, Imputed): 2.796
- OR (SNP x pravastatin treatment interaction) (SNP rs12336958, allele A1=G, model DOM, Imputed): 1.46
- OR (SNP x pravastatin treatment interaction) (SNP rs12407412, allele A1=C, model ADD, Imputed): 1.382
- OR (SNP x pravastatin treatment interaction) (SNP rs12407412, allele A1=C, model DOM, Imputed): 1.401
- OR (SNP x pravastatin treatment interaction) (SNP rs12418971, allele A1=C, model REC, Imputed): 1.699
- OR (SNP x pravastatin treatment interaction) (SNP rs12420184, allele A1=G, model DOM, Imputed): 0.6518
- OR (SNP x pravastatin treatment interaction) (SNP rs12433968, allele A1=T, model DOM, Imputed): 0.7213
- OR (SNP x pravastatin treatment interaction) (SNP rs12445477, allele A1=A, model DOM, Imputed): 0.4063
- OR (SNP x pravastatin treatment interaction) (SNP rs12447191, allele A1=T, model ADD, Genotyped): 0.6489
- OR (SNP x pravastatin treatment interaction) (SNP rs12447191, allele A1=T, model DOM, Genotyped): 0.5081
- OR (SNP x pravastatin treatment interaction) (SNP rs12465349, allele A1=A, model REC, Imputed): 1.587
- OR (SNP x pravastatin treatment interaction) (SNP rs12509758, allele A1=C, model DOM, Imputed): 1.856
- OR (SNP x pravastatin treatment interaction) (SNP rs12515472, allele A1=A, model DOM, Imputed): 1.531
- OR (SNP x pravastatin treatment interaction) (SNP rs12548906, allele A1=G, model ADD, Imputed): 1.496
- OR (SNP x pravastatin treatment interaction) (SNP rs12596240, allele A1=G, model DOM, Imputed): 0.6708
- OR (SNP x pravastatin treatment interaction) (SNP rs12618781, allele A1=A, model DOM, Imputed): 0.5446
- OR (SNP x pravastatin treatment interaction) (SNP rs12678600, allele A1=A, model DOM, Imputed): 0.6479
- OR (SNP x pravastatin treatment interaction) (SNP rs12692229, allele A1=T, model ADD, Imputed): 1.315
- OR (SNP x pravastatin treatment interaction) (SNP rs12713324, allele A1=T, model DOM, Imputed): 1.584
- OR (SNP x pravastatin treatment interaction) (SNP rs12719415, allele A1=T, model DOM, Imputed): 0.6887
- OR (SNP x pravastatin treatment interaction) (SNP rs12820589, allele A1=G, model ADD, Imputed): 1.758
